This experiment has as its system Plasmodium berghei. The experiment is described as follows: Luciferase/luciferin-expressing antifolate-resistant parasites were used to infect a culture of HepG2 cells that were pre-incubated with compounds. Infected hepatocytes emit light due to the luciferase reaction. Assay results are presented as the percent inhibition of light emission compared to control. […]. The settings on record: sporozoite; for IC90: read-out: LUCIFERASE INFECTION ASSAY - IC90. The experiment is classed as functional.

The mark [1] stands for this setting: read-out: LUCIFERASE INFECTION ASSAY - IC50.

By IC50 is commonly meant the concentration that inhibits the measured activity by half. For orientation: IC90 means the concentration at which the effect reaches the 90% level. As for `CC(C)(C(=O)Nc1ccon1)n1cc(-c2ccc(OCCN3CCCC3)cc2)cn1`, the IC90 was over 10 µM. Besides, under setting [1], the IC50 was over 10 µM.

For the molecule `CC(C)(C)c1cc(C(=O)Nc2nc(C(N)CCc3ccccc3)cs2)n(Cc2ccccc2)n1` (stereo not given), the IC90 was over 6.97 µM. Also, the IC50 under setting [1] was over 6.97 µM.

In the case of `Cc1cccc(Cn2nc(C(C)(C)C)cc2-c2nnc(SCc3ccccc3)n2C2CCCCC2)c1`, the IC90 is over 6.6 µM. For the same molecule, the IC50 under setting [1] was over 6.6 µM.

As for `O=C(Nc1nonc1-c1ccc(F)cc1)c1sc2ccccc2c1Cl`, the IC90 was found to be 7.47 µM. Where the note is “HEPG2TOX_HILL_SLOPE 12, HEPG2TOX_R_SQUARED 0.71, PBLUC_HILL_SLOPE 5.14, PBLUC_R_SQUARED 0.171, read-out: LUCIFERASE INFECTION ASSAY - IC50”, the IC50 worked out at 4.87 µM.

Regarding `COc1ccccc1CNC(=O)N/C=C/c1ccccc1Cl`, the IC90 was over 10.4 µM. The IC50 (PBLUC_HILL_SLOPE 1.23, PBLUC_R_SQUARED 0.697, read-out: LUCIFERASE INFECTION ASSAY - IC50) turned out to be 5.38 µM.

On to `N#CC(C#N)=Cc1c(-c2ccc(Cl)cc2)[nH]c2ccccc12`, for which the IC90 was 1.39 µM. The IC50 (HEPG2TOX_HILL_SLOPE 0.752, HEPG2TOX_R_SQUARED 0.846, PBLUC_HILL_SLOPE 1.54, PBLUC_R_SQUARED 0.775, read-out: LUCIFERASE INFECTION ASSAY - IC50) stood at 0.332 µM.

Regarding `O=C(CC1(O)C(=O)Nc2ccc(Br)cc21)c1ccc2c(c1)OCO2` (stereo not given), the IC90 is over 8.46 µM. Moreover, under setting [1], the IC50 is over 8.46 µM.

As for `CCCCCCC(/C=N/NC(=O)c1ccccc1O)=C\c1ccccc1`, the IC90 is over 10 µM. Also, the IC50 under setting [1] is over 10 µM.

Turning to `N#CCCN(Cc1ccco1)C(=O)CSc1nc2ccccc2c(=O)n1-c1cccc(Cl)c1`, the IC90 was over 10 µM. Under setting [1], the IC50 is 7.35 µM.

`COCC(C)n1c(C)cc(C(=O)COC(=O)c2cccc(C)c2C)c1C` (stereo not given): the IC90 turned out to be 6.95 µM. In addition, the IC50 (HEPG2TOX_HILL_SLOPE 0.0806, HEPG2TOX_R_SQUARED 0.082, PBLUC_HILL_SLOPE 4.05, PBLUC_R_SQUARED 0.617, read-out: LUCIFERASE INFECTION ASSAY - IC50) is 4.04 µM.

As for `N#C/C(=N\Nc1ccc(OC(F)(F)F)cc1)C(=O)C1CC1`, the IC90 was over 11.1 µM. Also, where the note is “HEPG2TOX_HILL_SLOPE 1.44, HEPG2TOX_R_SQUARED 0.96, PBLUC_HILL_SLOPE 2.87, PBLUC_R_SQUARED 0.372, read-out: LUCIFERASE INFECTION ASSAY - IC50”, the IC50 worked out at 7.46 µM.

For `O=C(c1c[nH]c2ccccc12)N1CCN(c2nsc3ccccc23)CC1`, the IC90 stood at 3.82 µM. Under “HEPG2TOX_HILL_SLOPE 9.85, HEPG2TOX_R_SQUARED 0.824, PBLUC_HILL_SLOPE 13.5, PBLUC_R_SQUARED 0.79, read-out: LUCIFERASE INFECTION ASSAY - IC50”, the 50% inhibitory concentration (IC50) stood at 3.25 µM.

`O=C(Cn1c(=O)oc2ccccc21)N1CCCC1c1nc2ccccc2s1` (stereo not given): the IC90 was over 10 µM. Also, for the setting “PBLUC_HILL_SLOPE 7.81, PBLUC_R_SQUARED 0.364, read-out: LUCIFERASE INFECTION ASSAY - IC50”, the half-inhibitory concentration (IC50) was 8.38 µM.

For the molecule `CN(C)c1cccc(-c2cnc3sc(NCCc4ccncc4)nn23)c1`, the IC90 is over 9.05 µM. In addition, under setting [1], the IC50 is over 9.05 µM.

In the case of `Nc1ncc(-c2ccc(F)c(Cl)c2)cc1-c1ccc(O)cc1`, the IC90 is over 10.5 µM. Further, the half-maximal inhibitory concentration (IC50) under setting [1] is over 10.5 µM.

With `CC(C)(C)c1cnnn1-c1ccc(C(=O)/C=C/c2ccccc2)cc1`, the IC90 was over 10 µM. The IC50 under setting [1] is over 10 µM.

`O=C(Nc1cccc(Cn2ccnc2)c1)c1nn(-c2ccccc2)c2c1CCC2`: the IC90 is over 10 µM. In addition, under setting [1], the IC50 was over 10 µM.

`CN(C)c1ccccc1-c1cn2c(-c3ccc(CO)cc3)cnc2cn1`: the IC90 was over 9.58 µM. Further, where the note is “HEPG2TOX_HILL_SLOPE 4.17, HEPG2TOX_R_SQUARED 0.686, PBLUC_HILL_SLOPE 6.79, PBLUC_R_SQUARED 0.489, read-out: LUCIFERASE INFECTION ASSAY - IC50”, the half-inhibitory concentration (IC50) was found to be 8.57 µM.

`Cc1cccc(-c2cn3c(-c4ccc(C#N)cc4)cnc3cn2)c1C`: the IC90 came out at 8.03 µM. The IC50 (PBLUC_HILL_SLOPE 3.65, PBLUC_R_SQUARED 0.571, read-out: LUCIFERASE INFECTION ASSAY - IC50) turned out to be 4.4 µM.

Consider `O=C(Cn1ncc(Cl)c(Cl)c1=O)NCC12CC3CC(CC(C3)C1)C2`, for which the IC90 is over 10 µM. For the same molecule, the IC50 (FFLUC_HILL_SLOPE 71.8, FFLUC_R_SQUARED 0.575, read-out: LUCIFERASE INFECTION ASSAY - IC50) is over 10 µM.

As to `COc1ccc(C(=O)/C(C#N)=N/Nc2cccc(Cl)c2Cl)cc1`, the IC90 was 9.32 µM. In addition, for the setting “HEPG2TOX_HILL_SLOPE 1.05, HEPG2TOX_R_SQUARED 0.901, PBLUC_HILL_SLOPE 1.18, PBLUC_R_SQUARED 0.493, read-out: LUCIFERASE INFECTION ASSAY - IC50”, the IC50 turned out to be 1.44 µM.

As to `Cn1nc(-c2ccccc2)c(-c2nc3ccccc3n2C)c1-c1ccccc1`, the 90% effect concentration (IC90) was 8.97 µM. For the same molecule, the IC50 (HEPG2TOX_HILL_SLOPE 2.41, HEPG2TOX_R_SQUARED 0.613, PBLUC_HILL_SLOPE 4.44, PBLUC_R_SQUARED 0.302, read-out: LUCIFERASE INFECTION ASSAY - IC50) is 5.47 µM.

On to `CN(c1ccccc1)c1nccc2nc(-c3ccncc3)[nH]c12`, for which the IC90 was over 10 µM. For the same molecule, the IC50 (HEPG2TOX_HILL_SLOPE 0.766, HEPG2TOX_R_SQUARED 0.225, read-out: LUCIFERASE INFECTION ASSAY - IC50) is over 10 µM.

In the case of `O=c1c(Cl)c(Cl)cnn1-c1ccc(F)c(Cl)c1`, the IC90 was found to be 4.35 µM. The IC50 (HEPG2TOX_HILL_SLOPE 3.48, HEPG2TOX_R_SQUARED 0.867, PBLUC_HILL_SLOPE 16.6, PBLUC_R_SQUARED 0.498, read-out: LUCIFERASE INFECTION ASSAY - IC50) stood at 3.81 µM.

`O=C(Nc1ccc(F)cc1F)c1nnsc1S(=O)(=O)c1ccc(Cl)cc1`: the 90% effect concentration (IC90) was over 7.94 µM. Besides, the half-maximal inhibitory concentration (IC50) under setting [1] was over 7.94 µM.

As to `COCC(C)n1c(COc2ccccc2F)nnc1SC(C(=O)Nc1cc(C(F)(F)F)ccc1Cl)c1ccccc1` (stereo not given), the IC90 stood at 9.85 µM. Further, the IC50 (FFLUC_HILL_SLOPE 3.29, FFLUC_R_SQUARED 0.0514, HEPG2TOX_HILL_SLOPE 2.28, HEPG2TOX_R_SQUARED 0.446, PBLUC_HILL_SLOPE 4.03, PBLUC_R_SQUARED 0.508, read-out: LUCIFERASE INFECTION ASSAY - IC50) turned out to be 5.71 µM.

`CC1C/C(=N\Nc2cc(Cl)cc(Cl)c2)c2cc(Cl)ccc2S1(=O)=O` (stereo not given): the IC90 was over 8.17 µM. In addition, the IC50 under setting [1] worked out at 6.27 µM.

Take `CC(C)(C)C(=O)Nc1ccccc1Sc1ccc([N+](=O)[O-])c(Sc2ccccc2NC(=O)C(C)(C)C)n1`: the IC90 is over 6.13 µM. The IC50 under setting [1] is over 6.13 µM.

As for `O=C(c1[nH]nc2ccccc12)N1CCN(CCOc2ccc(Cl)cc2)CC1`, the IC90 is over 10 µM. For the same molecule, the IC50 (HEPG2TOX_HILL_SLOPE 12.2, HEPG2TOX_R_SQUARED 0.374, PBLUC_HILL_SLOPE 13.5, 22.4, PBLUC_R_SQUARED 0.492, 0.389, read-out: LUCIFERASE INFECTION ASSAY - IC50) was 9.12 µM.

For the molecule `Clc1ccc(SCc2cc(NCc3ccccc3)nc(-c3cccnc3)n2)cc1`, the IC90 stood at 7.84 µM. In addition, the IC50 under setting [1] came out at 6.53 µM.

Consider `COc1ccc(-c2cc(NC(=O)C(C)NS(=O)(=O)c3ccc(C)cc3)ccc2OC(F)F)cc1` (stereo not given), for which the concentration for an effect of 90% (IC90) is over 10 µM. The IC50 under setting [1] turned out to be 8.3 µM.

Regarding `O=C(CSc1ccccc1[N+](=O)[O-])NNC(=S)NC1CC2C=CC1C2` (stereo not given), the IC90 was over 8.72 µM. Further, the IC50 under setting [1] was over 8.72 µM.

`OC[C@H]1O[C@@H](c2nc(-c3nc(-c4ccc5c(c4)OCO5)no3)cs2)C[C@@H]1O`: the IC90 is 2.15 µM. Also, the IC50 (PBLUC_HILL_SLOPE 1.28, PBLUC_R_SQUARED 0.808, read-out: LUCIFERASE INFECTION ASSAY - IC50) was 0.386 µM.

In the case of `CN(c1ccccc1)c1nnc(C(O)c2ccc3ccccc3c2)s1` (stereo not given), the 90% effect concentration (IC90) is over 10 µM. Also, the IC50 (PBLUC_HILL_SLOPE 0.974, PBLUC_R_SQUARED 0.604, read-out: LUCIFERASE INFECTION ASSAY - IC50) stood at 3.52 µM.

Regarding `O=C(NNC(=S)Nc1ccc(Cl)c(Cl)c1)c1cccn1-c1ccc(F)cc1`, the 90% effect concentration (IC90) is 5.78 µM. For the same molecule, for the setting “FFLUC_HILL_SLOPE 12.7, FFLUC_R_SQUARED 0.0579, HEPG2TOX_HILL_SLOPE 1.8, HEPG2TOX_R_SQUARED 0.871, PBLUC_HILL_SLOPE 2.85, PBLUC_R_SQUARED 0.299, read-out: LUCIFERASE INFECTION ASSAY - IC50”, the IC50 was found to be 2.67 µM.

With `CNc1ccccc1C(C)(C)c1cc(-c2ccc(Cl)cc2)no1`, the IC90 is over 10 µM. For the same molecule, the IC50 under setting [1] is 4.84 µM.

With `CCn1c(-c2ccccc2)c(C(=O)CSc2nnc(N)[nH]2)c2ccccc21`, the IC90 is over 10 µM. The half-maximal inhibitory concentration (IC50) (FFLUC_HILL_SLOPE 0.751, FFLUC_R_SQUARED 0.0256, read-out: LUCIFERASE INFECTION ASSAY - IC50) is over 10 µM.

As to `CCN(CC)S(=O)(=O)c1ccc(NC(=O)c2ccccc2Nc2cccc(C(F)(F)F)c2)cc1`, the IC90 is over 10 µM. Further, under “FFLUC_HILL_SLOPE 1.74, FFLUC_R_SQUARED 0.823, read-out: LUCIFERASE INFECTION ASSAY - IC50”, the IC50 was over 10 µM.

For `O=C(NCCc1nc(-c2ccccc2)no1)c1cc2cc(Cl)ccc2o1`, the IC90 was over 8.97 µM. In addition, for the setting “PBLUC_HILL_SLOPE 0.5, PBLUC_R_SQUARED 0.259, read-out: LUCIFERASE INFECTION ASSAY - IC50”, the IC50 was over 8.97 µM.

For the molecule `O=C(NC12CC3CC(CC(C3)C1)C2)c1ccc(=O)n(Cc2ccccc2)n1`, the IC90 was over 10 µM. For the setting “PBLUC_HILL_SLOPE 1.2, PBLUC_R_SQUARED 0.803, read-out: LUCIFERASE INFECTION ASSAY - IC50”, the IC50 was found to be 5.96 µM.

These data come from ChEMBL document CHEMBL4483862, “Open-source discovery of chemical leads for next-generation chemoprotective antimalarials” (2018).
